The source of these data is PubChem BioAssay (NCI).

“And” between values parts separate entries of the source, which are not always exact repeats. Equal entries are not always repeated.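 Compound exposure: 48 hours, 5 concentrations, 96-well plates. GI50 marks 50% less growth. TGI: concentration producing complete growth inhibition.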

Some test systems named below: UACC-257 melanoma; SR leukemia; UACC-62 melanoma; OVCAR-3 ovarian; MOLT-4 leukemia; SNB-19 CNS; OVCAR-4 ovarian; SNB-75 CNS; NCI-H23 lung; ACHN renal.
Test in all cases: NCI-60 cell line screen, 48 h

Turning to `Nc1ccc(COC(O)CN2CCCCC2)cc1[N+](=O)[O-]` (configuration not stated), the TGI in the test with UACC-257 melanoma, with SR leukemia, with UACC-62 melanoma, in the test with OVCAR-3 ovarian, with MOLT-4 leukemia and in the test with SNB-19 CNS was above 100 µM in each case. The TGI with OVCAR-4 ovarian, with SNB-75 CNS, in the test on NCI-H23 lung and in the test on ACHN renal was above 100 µM each time.
As for `O=C(/C=C1\C(=O)N(Cc2ccccc2)c2ccccc21)c1ccc(OCCN2CCCCC2)cc1`, the GI50 in the test with UACC-257 melanoma was 12.9 µM; in the test on SR leukemia, 1.77 µM; in the test on UACC-62 melanoma it was 1.83 µM; in the test on OVCAR-3 ovarian it was 1.75 µM; with MOLT-4 leukemia it was 1.87 µM; in the test with SNB-19 CNS it was 2.26 µM. The GI50 in the test on OVCAR-4 ovarian is 2.99 µM; in the test on SNB-75 CNS it was 11.8 µM; with NCI-H23 lung, 3.47 µM; in the test with ACHN renal, 1.63 µM. Moreover, the TGI in the test on UACC-257 melanoma is 25.9 µM; with SR leukemia, 9.55 µM; in the test with UACC-62 melanoma it was 3.62 µM; with OVCAR-3 ovarian, 3.2 µM; in the test on MOLT-4 leukemia it was 6.44 µM; in the test with SNB-19 CNS, 5.99 µM. For the same compound, the TGI came to 11.3 µM in the test on OVCAR-4 ovarian, 24.4 µM with SNB-75 CNS, 14.5 µM in the test with NCI-H23 lung and 2.98 µM in the test with ACHN renal.
With `Cc1c(N)nc(C(CC(N)=O)NCC(N)C(N)=O)nc1C(=O)NC(C(=O)NC(C)C(O)C(C)C(=O)NC(C(=O)NCCc1nc(-c2nc(C(=O)NCCCNC(C)c3ccccc3)cs2)cs1)C(C)O)C(OC1OC(CO)C(O)C(O)C1OC1OC(CO)C(O)C(OC(N)=O)C1O)c1cnc[nH]1` (configuration not stated), the GI50 in the test with UACC-257 melanoma is 56.5 µM; in the test on SR leukemia, 50.3 µM; with OVCAR-3 ovarian, 79.2 µM; in the test with MOLT-4 leukemia it was 3.75 µM; in the test with SNB-19 CNS it was 14.5 µM; in the test on OVCAR-4 ovarian, 81.5 µM. Besides, the GI50 in the test on SNB-75 CNS is 1.5 µM; in the test on NCI-H23 lung it was 3.31 µM. The TGI with UACC-257 melanoma is 50 µM and > 100 µM; with SR leukemia it was 50 µM and > 100 µM; in the test on UACC-62 melanoma, 8.82 µM; with OVCAR-3 ovarian it was 38.3 µM and > 100 µM; in the test on MOLT-4 leukemia, 25.9 µM and > 100 µM; in the test on SNB-19 CNS, 39.7 µM and > 100 µM. Further, the TGI with OVCAR-4 ovarian is 33.7 µM and > 100 µM; in the test with SNB-75 CNS, 5.03 µM and 8.77 µM; in the test on NCI-H23 lung it was 8.37 µM and 64.6 µM; in the test on ACHN renal, 0.189 µM and 1.48 µM.
Regarding `COC(=O)[C@@H](C)[C@H]1CC[C@@](C)(CCC2=C(C)CC3C=C(C)CCC3C2(C)C)OO1` (some centres not stated), the TGI amounted to 7.61 µM with UACC-257 melanoma; 3.87 µM in the test on SR leukemia; 3.86 µM with UACC-62 melanoma; 3.42 µM in the test on OVCAR-3 ovarian; 2.75 µM in the test on MOLT-4 leukemia; 3.16 µM in the test with SNB-19 CNS. Moreover, the TGI is 3 µM in the test on OVCAR-4 ovarian, 2.94 µM in the test with SNB-75 CNS, 3.49 µM in the test on NCI-H23 lung and 2.87 µM in the test on ACHN renal.
On to `Cc1ccc2c(c1)C(=O)c1c-2c(OCCCN(C)C)nc2ccccc12`, for which the GI50 was 3.06 µM with UACC-257 melanoma; 0.316 µM in the test with SR leukemia; 2.08 µM with UACC-62 melanoma; 5.72 µM with OVCAR-3 ovarian; 0.427 µM in the test on MOLT-4 leukemia; 2.81 µM in the test on SNB-19 CNS. In addition, the GI50 in the test with OVCAR-4 ovarian is 2.73 µM; in the test on SNB-75 CNS, 2.22 µM; with NCI-H23 lung, 1.66 µM; in the test with ACHN renal it was 0.731 µM. The TGI in the test with UACC-257 melanoma is 5.82 µM; in the test with SR leukemia it was 1.38 µM; in the test with UACC-62 melanoma it was 4.34 µM; with OVCAR-3 ovarian, 19.8 µM; in the test with MOLT-4 leukemia it was 4.57 µM; in the test on SNB-19 CNS, 15.1 µM. Further, the TGI in the test with OVCAR-4 ovarian came out at 13.1 µM; in the test on SNB-75 CNS, 15.5 µM; with NCI-H23 lung, 4.48 µM; in the test with ACHN renal, 2.11 µM.
As for `O=CN1N=C(c2cccc(Nc3ccnc4cc(Cl)ccc34)c2)CC1c1ccccc1` (configuration not stated), the GI50 with UACC-257 melanoma is 0.301 µM; with SR leukemia it was 0.201 µM; in the test with UACC-62 melanoma, 0.444 µM; with OVCAR-3 ovarian, 0.269 µM; in the test on MOLT-4 leukemia it was 0.383 µM; in the test with SNB-19 CNS it was 0.585 µM. The GI50 is 0.536 µM in the test with OVCAR-4 ovarian, 0.191 µM in the test with SNB-75 CNS, 0.551 µM in the test on NCI-H23 lung and 0.778 µM in the test with ACHN renal. For the same compound, the TGI is 37.6 µM in the test on UACC-257 melanoma; 1.72 µM in the test with SR leukemia; 21.8 µM with UACC-62 melanoma; 0.774 µM with OVCAR-3 ovarian; 2.77 µM with MOLT-4 leukemia; above 100 µM with SNB-19 CNS. Besides, the TGI was above 100 µM with OVCAR-4 ovarian, 1.83 µM in the test on SNB-75 CNS, above 36.8 µM in the test with NCI-H23 lung and above 79.4 µM in the test with ACHN renal.
Regarding `O=C(C#Cc1ccccc1)C1=Cc2ccccc2OC1`, the TGI with UACC-257 melanoma was 8.23 µM; in the test with SR leukemia, above 100 µM; with UACC-62 melanoma it was 4.26 µM; in the test with OVCAR-3 ovarian, 5.35 µM; in the test on MOLT-4 leukemia, above 100 µM; with SNB-19 CNS it was 29.6 µM. Also, the TGI turned out to be 8.9 µM in the test on OVCAR-4 ovarian, 13.3 µM in the test on SNB-75 CNS, 5.47 µM in the test with NCI-H23 lung and 5.26 µM in the test on ACHN renal.
Consider `CC(=O)O[C@H]1C(=O)[C@@]2(C)[C@H]([C@H](OC(=O)c3ccccc3)[C@]3(O)C[C@H](OC(=O)[C@H](OC(=O)OC[C@H]4COC(C)(C)O4)[C@@H](NC(=O)c4ccccc4)c4ccccc4)C(C)=C1C3(C)C)[C@]1(OC(C)=O)CO[C@@H]1C[C@@H]2O`, for which the TGI is above 33.3 µM with UACC-257 melanoma; above 33.3 µM with SR leukemia; above 33.3 µM with UACC-62 melanoma; 0.252 µM with OVCAR-3 ovarian; above 33.3 µM in the test with MOLT-4 leukemia; above 33.3 µM in the test with SNB-19 CNS. The TGI in the test with OVCAR-4 ovarian was above 33.3 µM; with SNB-75 CNS, 0.0697 µM; in the test on NCI-H23 lung, above 33.3 µM; with ACHN renal it was above 33.3 µM. Further, the GI50 in the test with SR leukemia is 0.0126 µM; in the test on UACC-62 melanoma, 0.046 µM; in the test with OVCAR-3 ovarian, 0.0109 µM; with MOLT-4 leukemia, 0.0408 µM; with SNB-19 CNS, 0.0615 µM; in the test on OVCAR-4 ovarian, above 33.3 µM. The GI50 was 0.00333 µM in the test on SNB-75 CNS, 0.0476 µM with NCI-H23 lung and 0.343 µM in the test on ACHN renal.
